Data: patent publication EP3381907A1, “SYMMETRICAL 2-AMINOPHENYL-BENZAZOLYL-5-ACETATE COMPOUNDS AND THEIR USE AS ANTI-HEPARANASE” (Leadiant Biosciences SA, priority 2017, dated 2018)

Legend:
[1] = system: HT1080 (human fibrosarcoma); test: Matrigel cell invasion assay, HT1080; assay type: cell-based
Experimental: (§1) Heparanase inhibitors were then evaluated for their activity on the invasive potential of HT1080 (human fibrosarcoma), U87MG (human glioblastoma astrocytoma) and U2OS (human osteosarcoma) human cell lines, using the Matrigel cell invasion assay which allows to assess the cell invasion ability of malignant and normal cells.
(§2) Invasion assay was performed using BioCoat cell culture inserts (BioCoat 8.0µm PET Membrane 24 Well Permeable Supports, Corning). Filters were coated with 100 µl of 300 µg/ml Matrigel dissolved in coating buffer (0.01 M Tris pH 8.0, 0.7% NaCl) (Becton-Dickinson Sciences). DMEM (Dulbecco's Modified Eagle's Medium) containing 5% FBS was added to the lower chambers. Cells were pre-treated with heparanase inhibitors for 24 h, detached and added to the upper chambers in media containing the inhibitors. Cells were allowed to invade for 24 h at 37°C in a CO2 incubator and then unmigrated cells were removed from the upper chamber with a cotton swab. The invading cells were fixed, stained with 0.1% crystal violet for 10 min at room temperature, photographed and counted under inverted microscope.
(§3) Test compounds were analyzed at fixed concentration (2.5 µM) for several fields, in duplicates. Activity of test compounds was compared to the reference compound. Activity of most interesting compound was confirmed in a second cell invasion assay. Data were expressed as the percent invasion with respect to cell migration through uncoated insert membrane (see Table 3 below)
(§4) Table 3. […] In Invasion assay, data were expressed as the percent invasion (range) with respect to cell migration through uncoated insert membrane. In Adhesion assay, data were expressed as the percent of adhesion with respect to the control (100%). • Legend • ++: 50-90% • + : < 50% • - : Not Active

[2] = system: U2OS (human osteosarcoma); test: SRB Cell Cytotoxicity Assay, U2OS; assay type: cell-based; details: 72h treatment, read-out: Concentration (µM) of test compounds at which the cell growth is inhibited by 50 %. U2OS
Description: (§5) SRB Cell Cytotoxicity Assay is an assay based upon the quantitative staining of cellular proteins by sulforhodamine B (SRB). This assay can be used for high-throughput drug screening (Vichai & Kirkitara, Nature Protocol. 2006, 1, 112). Sulforhodamine B is an anionic aminoxanthene dye that forms an electrostatic complex with the basic amino acid residues of proteins under moderately acid conditions, which provides a sensitive linear response.
(§6) To assess a putative antiproliferative activity of the selected compounds, HT1080 (human fibrosarcoma), U87MG (human glioblastoma astrocytoma) and U2OS (human osteosarcoma) cell lines were treated for 72h, in triplicate, with increasing concentrations of heparanase inhibitors. Inhibition of cell proliferation was then measured by the classical colorimetric SRB Cell Cytotoxicity assay. Absorbance was measured by spectrophotometer at a wavelength of 510 nm and cell proliferation was determined as percent with respect to control cells (cells treated with the vehicle alone). EC50 values were then determined by GraphPad Prism.

heparanase = target: T1, heparanase (Homo sapiens, UniProt Q9Y251); test: AGA*IA assay: colorimetric fondaparinux cleavage assay for heparanase inhibition (WST-1); assay type: biochemical; details: 2.5 nM heparanase, 100 µM fondaparinux, pH 5.0, 3 h at 37°C; class symbols
T1 sequence (Q9Y251 158-543 limits assumed): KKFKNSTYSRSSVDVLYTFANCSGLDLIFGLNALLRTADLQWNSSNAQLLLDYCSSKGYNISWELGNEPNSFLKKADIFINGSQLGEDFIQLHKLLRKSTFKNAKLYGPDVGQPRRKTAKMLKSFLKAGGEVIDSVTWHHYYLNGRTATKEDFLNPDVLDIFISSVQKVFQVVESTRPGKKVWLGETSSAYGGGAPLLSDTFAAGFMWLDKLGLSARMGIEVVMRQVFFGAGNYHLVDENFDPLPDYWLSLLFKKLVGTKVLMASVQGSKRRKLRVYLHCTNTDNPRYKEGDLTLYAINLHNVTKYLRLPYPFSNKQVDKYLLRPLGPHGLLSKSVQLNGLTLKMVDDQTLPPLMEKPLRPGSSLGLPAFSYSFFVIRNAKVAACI
T1 sequence (Q9Y251 36-109 limits assumed): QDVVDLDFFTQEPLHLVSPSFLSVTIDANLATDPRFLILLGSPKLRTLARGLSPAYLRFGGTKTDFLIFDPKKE
Experimental: All compounds were tested in a simple, accurate and robust microplate assay based on the cleavage of the synthetic heparin fragment, the pentasaccharide Fondaparinux (AGA*IA). This assay was originally developed by Hammond and coworkers [Hammond E, Li CP, Ferro V. Development of a colorimetric assay for heparanase activity suitable for kinetic analysis and inhibitor screening. Anal. Biochem. 396(1), 112-116 (2010)], where Fondaparinux corresponds to the methyl glycoside of the antithrombin III (ATIII)-activating pentasaccharide sequence of heparin. Fondaparinux is cleaved by heparanase to generate a reducing disaccharide, which can be quantitatively measured via a colorimetric or a fluorescence assay, the last by the fluorescent sensor polymer-H [Schiemann S, Lühn S, Alban S. Development of both colorimetric and fluorescence heparinase activity assays using fondaparinux as substrate. Anal. Biochem. 427(1), 82-89 (2012)].
The assay measures the appearance of the disaccharide product of heparanase-catalyzed fondaparinux cleavage colorimetrically using the tetrazolium salt WST-1. Assay was essentially performed as described with minor modifications. Briefly, NUNC ELISA 96-well plates were pre-treated with a solution of 4% BSA (bovin serum albumin) in phosphate-buffered saline containing 0.05% Tween 20 (PBST), for 2 h at 37°C, then washed three times with PBST, dried by tapping on paper towel and stored at -20°C. Before use, once again, the plates were washed with PBST.
Assay was carried out with 100 µl/well of assay solution containing 40 mM sodium acetate buffer (pH 5.0), 100 µM fondaparinux, 2.5 nM heparanase and serial dilutions of test compounds (tested in triplicate). Plates were sealed with adhesive tape and incubated, in the dark, for 3 h at 37°C, followed by development with 1.69 mM of the tetrazolium salt WST-1 solution in 0.1 M NaOH, for 1 h at 60°C. Then, the absorbance at 560 nm was measured through a microplate reader (Victor 3, Perkin Elmer).
Finally, the measurements were corrected by subtracting both the reagent background and the inner absorbance value of test compound.

[3] = system: U87MG (human glioblastoma astrocytoma); test: SRB Cell Cytotoxicity Assay, U87MG; assay type: cell-based; details: U-87 MG, 72h treatment, read-out: Concentration (µM) of test compounds at which the cell growth is inhibited by 50 %. U87MG
Description: as §5, §6

[4] = system: U87MG (human glioblastoma astrocytoma); test: Matrigel cell invasion assay, U87MG; assay type: cell-based; design: key to Invasion Assay Inhibition U87MG: ++: 50-90%; +: < 50%; -: Not Active
Experimental: as §1, §2, §3, §4

[5] = system: U87MG (human glioblastoma astrocytoma); test: Cell adhesion assay on matrigel coated wells, U87MG; assay type: cell-based; details: percent of adhesion with respect to the control (100%)
Experimental: (§7) Cell surface, non-integrin molecules such as heparan sulfate proteoglycans (HSPGs) may be involved in the regulation of early adhesive stages of cell-ECM interactions. A cell adhesion assay has been employed to determine if the newly designed heparanase inhibitors were able to interfere with adhesion properties of cancer cells.
(§8) HT1080 (human fibrosarcoma) and U87MG (human glioblastoma astrocytoma) cells were treated for 18-20 h with test compounds in complete medium supplemented with 10% FCS. Then cells were collected, washed in complete medium, and added to matrigel coated wells in triplicate, at previously identified optimal seeding density, and incubated at 37 °C in complete medium for times ranging from 15 minutes to 4h, according to the cell line. After incubation, the wells were washed three times with serum-free medium and the remaining firmly attached cells were stained with crystal-violet 0.1%. Optical density was measured at 560 nm by Victor 3 (Perkin-Elmer) plate analyzer. Each experiment was repeated three times.
as §4

[6] = system: HT1080 (human fibrosarcoma); test: Cell adhesion assay on matrigel coated wells, HT1080; assay type: cell-based; details: percent of adhesion with respect to the control (100%)
Experimental: as §7, §8, §4

[7] = system: HT1080 (human fibrosarcoma); test: SRB Cell Cytotoxicity Assay, HT1080; assay type: cell-based; details: HT-1080, HT1080, 72h treatment, read-out: Concentration (µM) of test compounds at which the cell growth is inhibited by 50 %. HT1080
Description: as §5, §6

[8] = system: U2OS (human osteosarcoma); test: Matrigel cell invasion assay, U2OS; assay type: cell-based; design: key to Invasion Assay Inhibition U2OS: ++: 50-90%; +: < 50%; -: Not Active
Experimental: as §1, §2, §3, §4

Row | SMILES | inhibition at 2.5 µM ([1]; HT-1080, HT1080, test compound at 2.5 µM, 24 h pre-treatment, 24 h invasion) [%] | EC50 [2] [µM] | IC50 (heparanase) [µM] | EC50 [3] [µM] | inhibition at 2.5 µM ([4]; Homo sapiens, U-87 MG, test compound at 2.5 µM, 24 h pre-treatment, 24 h invasion) [%] | Adhesion Assay (%) U87MG ([5]; test compound at 2.5 µM) [%] | Adhesion Assay (%) HT1080 ([6]; HT1080, test compound at 2.5 µM) [%] | EC50 [7] [µM] | inhibition at 2.5 µM ([8]; Homo sapiens, test compound at 2.5 µM, 24 h pre-treatment, 24 h invasion) [%] | inhibition at 10 µM ([1]; HT-1080, HT1080, reference compound at 10 µM) [%] | Invasion Assay Inhibition U87MG ([4]; reference compound at 10 µM) | Adhesion Assay (%) U87MG ([5]; reference compound at 10 µM) [%] | Adhesion Assay (%) HT1080 ([6]; HT1080, reference compound at 10 µM) [%] | Invasion Assay Inhibition U2OS ([8]; reference compound at 10 µM)
1 | C[C@H](NC(=O)Cc1ccc2oc(-c3ccc(NC(=O)Nc4ccc(-c5nc6cc(CC(=O)N[C@@H](C)C(=O)O)ccc6o5)cc4F)c(F)c3)nc2c1)C(=O)O [Compound 27, (2S,2'S)-2,2'-((2,2'-(((Carbonylbis(azanediyl))bis(3-fluoro-4,1-phenylene))bis(benzo[d]oxazole-2,5-diyl))bis(acetyl))bis(azanediyl))dipropionic acid] | < 50 | > 10 | 0.05 to 0.49 | > 10 | 50 to 90 | 61.10 | 90.94 | > 10 | < 50 |  |  |  |  | 
2 | Cc1ccc(C(=O)Nc2ccc(S(=O)(=O)O)c3cc(S(=O)(=O)O)cc(S(=O)(=O)O)c23)cc1NC(=O)c1cccc(NC(=O)Nc2cccc(C(=O)Nc3cc(C(=O)Nc4ccc(S(=O)(=O)O)c5cc(S(=O)(=O)O)cc(S(=O)(=O)O)c45)ccc3C)c2)c1 [Suramin, reference compound] |  | > 10 |  | > 10 |  |  |  | > 10 |  | < 50 | - | 100 | 72.98 | -
